Drawing on patent publication US12410160B2 (Gilead Sciences, Inc., priority 2021, dated 2025), this text covers EC50 and IC50 for 26 compounds.

One may read the EC50 as the concentration at which the effect is half-maximal. One may read the IC50 as the concentration needed to halve the response being measured.

Experiment [1] concerns the target KHK-C expressed in NRK-52E cells (Homo sapiens (Human), UniProt P50053). Briefly: KHK-C Cell-based Assay (EC50), NRK CTG, fructose-mediated ATP-depletion.
The target of experiment [2] is human KHK-C (Homo sapiens (Human), UniProt P50053). Briefly: KHK Biochemical Assay (IC50), ADP-Glo, KHK-C. The note with it: average of at least two separate assays. In outline: (§1)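 Luminescent ADP-Glo read-out of ADP made by His-tagged KHK (BL21 (DE3) expression, Ni-NTA). Enzyme and compound sat together 30 min before ATP/fructose addition, then reacted 4 h at RT in Hepes pH 7.4 buffer with KCl, MgCl2, Triton-X. Quench 1 h, detection 1 h.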
Chain of human KHK-C (P50053 whole entry): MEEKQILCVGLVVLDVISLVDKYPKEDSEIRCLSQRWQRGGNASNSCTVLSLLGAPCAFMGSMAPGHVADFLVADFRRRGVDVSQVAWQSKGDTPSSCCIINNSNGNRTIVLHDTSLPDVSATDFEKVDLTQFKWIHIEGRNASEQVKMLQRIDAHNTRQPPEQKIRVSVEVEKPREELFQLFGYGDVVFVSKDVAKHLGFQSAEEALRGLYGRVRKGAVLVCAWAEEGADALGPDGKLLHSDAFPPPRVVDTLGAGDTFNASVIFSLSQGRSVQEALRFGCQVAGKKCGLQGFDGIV
(In general: ADP-Glo turns the ADP formed in a reaction into a luminescent signal.)

Experiment [3] addresses human KHK-A (Homo sapiens (Human), UniProt P50053). In words: KHK Biochemical Assay (IC50), ADP-Glo, KHK-A. The note with it: average of at least two separate assays. In outline:
as §1

Where two headings read alike, the source gives them in different places.

Chain of KHK-C expressed in NRK-52E cells (P50053 whole entry): as above
Chain of human KHK-A (P50053 other isoform, or with tags, fused parts or gaps): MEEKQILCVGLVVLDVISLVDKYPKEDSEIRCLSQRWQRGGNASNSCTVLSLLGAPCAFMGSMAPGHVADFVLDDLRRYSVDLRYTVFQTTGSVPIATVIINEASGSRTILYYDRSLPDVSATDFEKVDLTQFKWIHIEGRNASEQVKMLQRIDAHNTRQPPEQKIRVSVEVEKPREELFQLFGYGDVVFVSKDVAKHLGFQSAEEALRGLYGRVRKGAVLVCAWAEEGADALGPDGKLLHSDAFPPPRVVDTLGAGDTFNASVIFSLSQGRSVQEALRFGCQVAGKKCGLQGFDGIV

In experiment [1], `COC(=O)[C@H]1C[C@@]12C(=O)Nc1ccc(-c3nc(N4CC[C@@H]4C)nc4c3CCC4)cc12` (racemic) [Example 407, rac-methyl (1R,2S)-5′-(2-((S)-2-methylazetidin-1-yl)-6,7-dihydro-5H-cyclopenta[d]pyrimidin-4-yl)-2′-oxospiro[cyclopropane-1,3′-indoline]-2-carboxylate] had an EC50 of 506 nM. Further, the IC50 in experiment [2] was determined as 229 nM; in experiment [3], 235 nM.
Taken in the same sequence, the figures for `C[C@H]1CCN1c1nc2c(c(-c3ccc4c(c3)[C@]3(C[C@H]3C(=O)O)C(=O)N4)n1)CCC2` (racemic) [Example 408, rac-(1R,2R)-5′-(24(8)-2-methylazetidin-1-yl)-6,7-dihydro-5H-cyclopenta[d]pyrimidin-4-yl)-2′-oxospiro[cyclopropane-1,3′-indoline]-2-carboxylic acid] were above 5000 nM, 100 nM and 158 nM.
The matching figures for `C[C@H]1CCN1c1nc2c(c(-c3ccc4c(c3)[C@]3(C[C@@H]3C(=O)O)C(=O)N4)n1)CCC2` (racemic) [Example 409, rac-(1R,28)-5′-(24(8)-2-methylazetidin-1-yl)-6,7-dihydro-5H-cyclopenta[d]pyrimidin-4-yl)-2′-oxospiro[cyclopropane-1,3′-indoline]-2-carboxylic acid]: above 5000 nM, 34.3 nM and 41 nM.
For `C[C@H]1CCN1c1nc2c(c(-c3ccc4c(c3)C[C@@H]3[C@@H](C(N)=O)[C@H]43)n1)CCC2` (relative stereo) [Example 137, (1R,1aR*,6aS*)-4-(2-((S)-2-methylazetidin-1-yl)-6,7-dihydro-5H-cyclopenta[d]pyrimidin-4-yl)-1,1a,6,6a-tetrahydrocyclopropa[a]indene-1-carboxamide], the EC50 in experiment [1] amounted to 100 nM. For the same compound, the figures for the IC50 in experiment [2] (ADP-Glo) and in experiment [3] (ADP-Glo) were 90.3 nM and 216 nM, respectively.
The matching figures for `C[C@H]1CCN1c1nc2c(c(-c3ccc4c(c3)C[C@@H]3[C@H](C(N)=O)[C@H]43)n1)CCC2` (relative stereo) [Example 138, (1S,1aR*,6aS*)-4-(2-((S)-2-methylazetidin-1-yl)-6,7-dihydro-5H-cyclopenta[d]pyrimidin-4-yl)-1,1a,6,6a-tetrahydrocyclopropa[a]indene-1-carboxamide]: 1800 nM, 220 nM and 294 nM.
For `CC(=O)N1C[C@H](C(N)=O)[C@@H](c2cccc(-c3nc(N4CC[C@@H]4C)nc4c3CCC4)c2)C1` (relative stereo) [Example 146, (3R*,4S*)-1-acetyl-4-(3-(2-((S)-2-methylazetidin-1-yl)-6,7-dihydro-5H-cyclopenta[d]pyrimidin-4-yl)phenyl)pyrrolidine-3-carboxamide], the 50% effective concentration (EC50) in experiment [1] was found to be 423 nM. Besides, the IC50 worked out at 116 nM in experiment [2] (ADP-Glo) and 118 nM in experiment [3] (ADP-Glo).
In turn, `C[C@H]1[C@H](C(N)=O)CN1c1nc2c(c(-c3ccc(C(N)=O)cc3)n1)CCC2` (relative stereo) [Example 266, (rac)-(2S*,3R*)-1-(4-(4-carbamoylphenyl)-6,7-dihydro-5H-cyclopenta[d]pyrimidin-2-yl)-2-methylazetidine-3-carboxamide] had an EC50 in experiment [1] above 5000 nM. Further, the IC50 in experiment [2] (ADP-Glo) and in experiment [3] (ADP-Glo) was above 5000 nM throughout.
For `C[C@H]1CCN1c1nc2c(c(-c3cccc([C@H]4C[C@@H]4c4nn[nH]n4)c3)n1)CCC2` (relative stereo) [Example 270, 4-(3-((1S*,2S*)-2-(2H-tetrazol-5-yl)cyclopropyl)phenyl)-2-((S)-2-methylazetidin-1-yl)-6,7-dihydro-5H-cyclopenta[d]pyrimidine], in experiment [1], the 50% effective concentration (EC50) is 2140 nM. For the same compound, the IC50 in experiment [2] (ADP-Glo) was determined as 44.7 nM; in experiment [3] (ADP-Glo) it was 62.3 nM.
The matching figures for `C[C@H]1CCN1c1nc2c(c(-c3cccc([C@@H]4C[C@H]4C(=O)O)c3)n1)CCC2` (single isomer, unassigned) [Example 90]: 121 nM, 11.2 nM and 8.9 nM.
`C[C@H]1[C@H](O)CN1c1nc(-c2ccc(OC3CC3)c([S@@](C)(=N)=O)c2)c2c(n1)C(F)(F)CC2` (single isomer, unassigned) [Example 542] registered an EC50 in experiment [1] of 5.7 nM. The IC50 is 0.6 nM in experiment [2] and 0.5 nM in experiment [3].
In turn, `C[C@H]1[C@H](O)CN1c1nc(-c2ccc3c(c2)OC[C@]32NC(=O)OC2(C)C)c2c(n1)C(F)(F)CC2` (single isomer, unassigned) [Example 566] came in with an EC50 in experiment [1] of 6.7 nM. The IC50 worked out at 0.8 nM in experiment [2] and 16.3 nM in experiment [3].
For the compound `C[C@H]1[C@H](O)CN1c1nc(-c2ccc3c(c2)CC[C@@]32CCC(=O)N2)c2c(n1)C(F)(F)CC2` (single isomer, unassigned) [Example 637], in experiment [1], the response was half-maximal at 161 nM (EC50). Further, the IC50 came out at 22.1 nM in experiment [2] and 35.1 nM in experiment [3].
The matching figures for `C[C@H]1[C@H](O)CN1c1nc(-c2ccc3c(c2)CC[C@]32CCC(=O)N2)c2c(n1)C(F)(F)CC2` (single isomer, unassigned) [Example 638]: 6.1 nM, 0.3 nM and 8.5 nM.
The matching figures for `C[C@H]1[C@H](O)CN1c1nc(-c2ccc3c(c2)COC[C@@]32CCC(=O)N2)c2c(n1)C(F)(F)CC2` (single isomer, unassigned) [Example 640]: 280 nM, 29.2 nM and 38.8 nM.
`C[C@H]1[C@H](O)CN1c1nc(-c2ccc3c(c2)COC[C@]32CCC(=O)N2)c2c(n1)C(F)(F)CC2` (single isomer, unassigned) [Example 641]: the EC50 in experiment [1] (read-out: NRK CTG EC50, NRK-52E cells, Cell-Titer Glo, 25 mM fructose) is 20.3 nM. In addition, the IC50 stood at 0.9 nM in experiment [2] and 14.5 nM in experiment [3].
In experiment [1], `C[C@H]1CCN1c1nc(-c2cccc(N=[S@@](C)(N)=O)c2)c2c(n1)C(F)(F)CC2` (single isomer, unassigned) [Example 691] showed an EC50 of 50.4 nM. The IC50 was 7.4 nM in experiment [2] and 7.5 nM in experiment [3].
The matching figures for `C[C@H]1CCN1c1nc(-c2cccc(N=[S@](C)(N)=O)c2)c2c(n1)C(F)(F)CC2` (single isomer, unassigned) [Example 692]: 44.9 nM, 8.3 nM and 6.9 nM.
`C[C@H]1[C@H](O)CN1c1nc(-c2ccc3c(c2)OC[C@]32CN(C)C(=O)N2)c2c(n1)C(F)(F)CC2` (single isomer, unassigned) [Example 701] yielded an EC50 in experiment [1] of 108 nM. In addition, the IC50 was 20.5 nM in experiment [2] and 31.8 nM in experiment [3].
Regarding `C[C@H]1[C@H](O)CN1c1nc(-c2ccc3c(c2)OC[C@@]32CN(C)C(=O)N2)c2c(n1)C(F)(F)CC2` (single isomer, unassigned) [Example 702], the EC50 in experiment [1] was 3.9 nM. The IC50 in experiment [2] came to 0.2 nM; in experiment [3] it was 11.7 nM.
In experiment [1], `C[C@H]1CCN1c1nc2c(c(-c3ccc(C(O)C(F)(F)F)cc3)n1)CCC2` (stereo in doubt) [Example 265, 2,2,2-trifluoro-1-[4-[2-[(2S)-2-methylazetidin-1-yl]-6,7-dihydro-5H-cyclopenta[d]pyrimidin-4-yl]phenyl]ethanol] gave an EC50 of 700 nM. Besides, the IC50 was 1630 nM in experiment [2] (ADP-Glo) and 2100 nM in experiment [3] (ADP-Glo).
Taken in the same sequence, the figures for `C[C@H]1CCN1c1nc2c(c(-c3ccc(C(N)C(F)(F)F)cc3)n1)CCC2` (stereo in doubt) [Example 269, 2,2,2-trifluoro-1-[4-[2-[(2S)-2-methylazetidin-1-yl]-6,7-dihydro-5H-cyclopenta[d]pyrimidin-4-yl]phenyl]ethanamine] were above 5000 nM, above 5000 nM and above 5000 nM.
`C[C@H]1CCN1c1nc2c(c(-c3cccc([C@H]4C[C@@H]4C#N)c3)n1)CCC2` (stereo in doubt) [Example 454, trans-2-[3-[2-[(2S)-2-methylazetidin-1-yl]-6,7-dihydro-5H-cyclopenta[d]pyrimidin-4-yl]phenyl]cyclopropanecarbonitrile] showed an EC50 in experiment [1] of 546 nM. In addition, the IC50 in experiment [2] is 489 nM; in experiment [3], 459 nM.
`C[C@H]1CCN1c1nc2c(c(-c3cccc([C@H]4C[C@@H]4C(N)=O)c3)n1)CCC2` (stereo in doubt) [Example 456, trans-2-[3-[2-[(2S)-2-methylazetidin-1-yl]-6,7-dihydro-5H-cyclopenta[d]pyrimidin-4-yl]phenyl]cyclopropanecarboxamide]: a half-maximal response in experiment [1] (EC50) required 51.8 nM. In addition, the IC50 in experiment [2] amounted to 21.8 nM; in experiment [3], 44.8 nM.
As for `Cc1ccc(-c2nc(N3CC[C@@H]3C)nc3c2CCC3)cc1C(N)=O` [Example 27, (S)-2-methyl-5-(2-(2-methylazetidin-1-yl)-6,7-dihydro-5H-cyclopenta[d]pyrimidin-4-yl)benzamide], the EC50 in experiment [1] was determined as 229 nM. For the same compound, the results for the IC50 in experiment [2] (ADP-Glo) and in experiment [3] (ADP-Glo) were 59.7 nM and 58.9 nM, respectively.
Taken in the same sequence, the figures for `CNC(=O)c1cccc(-c2nc(N3CC[C@@H]3C)nc3c2CCC3)c1` [Example 28, (S)—N-methyl-3-(2-(2-methylazetidin-1-yl)-6,7-dihydro-5H-cyclopenta[d]pyrimidin-4-yl)benzamide] were 137 nM, 50.3 nM and 55.2 nM.
The matching figures for `C[C@H]1CCN1c1nc2c(c(-c3cccc(CCC(N)=O)c3)n1)CCC2` [Example 29]: 120 nM, 33 nM and 55.3 nM.
